According to patent US5874412A, “Bis-anthracyclines with high activity against doxorubicin resistant tumors” (priority 1997, dated 1999):
“And” between values parts separate entries of the source, which are not always exact repeats. Identical values can stand only once. “Also recorded” adds a separate entry of the source. Counter-ions that a name gives are not always drawn. Like-named read-outs stand apart in the source and are kept apart here.

Experiments:
[1] = test system: MCF-7/VP-16 cells; settings: for RI (resistance index) MCF-7/VP16 / MCF-7: human, mcf-7/vp-16 / mcf-7 cells, 4320 min
[2] = test system: MCF-7 cells; experiment: MTT cytotoxicity assay, sensitive MCF-7 cells; assay type: cell-based, human; settings: for IC50: Homo sapiens, MCF7, MTT, 72 h, read-out: ID50 MCF-7
[3] = test system: KB-V-1 cells
[4] = test system: MCF-7/VP-16 cells; experiment: cells; settings: Homo sapiens, MCF7, 72 h, read-out: ID50 MCF-7/VP16
[5] = test system: DNA; settings: literature; cited from earlier work
[6] = test system: KB-3-1 cells; experiment: MTT cytotoxicity assay, sensitive KB-3-1 cells; settings: Homo sapiens, KB 3-1, read-out: ID50 KB-3-1
[7] = Young et al., 1985; cited from earlier work
[8] = test system: KB-V-1 cells; experiment: cells; settings: Homo sapiens, KB-V1, read-out: ID50 KB-V-1
[9] = test system: herring sperm DNA; assay type: binding
[10] = test system: DNA; experiment: Viscosity studies (binding mode, relative viscosity of DNA); settings: for binding mode from viscosity: in words, slope compared with daunorubicin; for slope of cubed root of the relative viscosity vs bound drug per DNA base pair: linear least squares fits, FIG. 20
Excerpt: FIG. 20. Viscosity studies of WP631-DNA interaction. The cubed root of the relative viscosity (.eta./.eta.0) is shown as a function of the ratio of bound drug per DNA base pair: solid circles, ethidium bromide; open diamonds, daunorubicin; solid diamonds, WP63 1.
The bisanthracyclines may be tested as effective intercalating agents using viscosity assays as described by Suh and Chaires (1995). Such assays are well known to those of skill in the art. In theory, for monointercalation,plots of the cubed root of the relative viscosity ((.eta./.eta.0)^1/3) versus the binding ratio (bound drug/DNA bp) ought to have a slope of 1.0. For bisintercalators, the slope is expected to be twice that observed for monointercalators, an expectation that has been verified for a variety of bisintercalating compounds (Wakelin, 1986). Thus in order to test the effectiveness of a candidate bisintercalator the viscosity of a DNA solution is measured according to assays well known to those of skill in the art (Suh and Chaires, 1995) and compared to the viscosity of a known intercalator such as daunorubicin. If the candidate substance is higher than that of the control monointercalator then the candidate substance is likely to be an effective bisintercalator.
Viscosity Studies. Relative viscosity studies were conducted exactly as described previously (Suh and Chaires, 1995). Data were cast into a plot of (.eta./.eta.0)^1/3 versus ratio of bound drug per DNA base pair, in accord with the theory of Cohen and Eisenberg (1969). Ethidium bromide and daunorubicin were run as controls for these experiments.
WP631 Bisintercalates into DNA. In the absence of high-resolution structural data, hydrodynamic studies, especially viscosity, provide the most reliable means of inferring the binding mode of agents that interact with DNA (Suh and Chaires, 1995). […] The theory of Cohen and Eisenberg (1969) predicts that, for monointercalation,plots of the cubed root of the relative viscosity ((.eta./.eta.0)^1/3) versus the binding ratio (bound drug/DNA bp) ought to have a slope of 1.0.
For bisintercalators, the slope is expected to be twice that observed for monointercalators, an expectation that has been verified for a variety of bisintercalating compounds (Wakelin, 1986). […] The model was constructed using Hyper-Chem software (v. 4.5, Hypercube, Inc.) by using the coordinates of the high-resolution structure reported by Wang et al. (1987) for a 2:1 daunorubicin-DNA complex. The sequence of the hexanucleotide in that study was d(G.CTAG.C)3, where the two equivalent intercalation sites are indicated.

[11] = test system: herring sperm DNA; experiment: UV melting studies of DNA with drug; binding constant from Tm shift; settings: for Kd: BPE buffer
[12] = test system: topoisomerase II; settings: Hsiang et al., 1989; cited from earlier work
[13] = molecular target: herring sperm DNA; settings: cited from earlier work

SMILES	RI (resistance index) MCF-7/VP16 / MCF-7 [1]	IC50 [2]	cytotoxicity in MDR KB-V1 cells, in words [3]	IC50 [4]	preferred DNA binding sites [5]	IC50 [6]	IC50 [8]	potency in MCF-7 cells compared with DOX, in words [2]	slope of cubed root of the relative viscosity vs bound drug per DNA base pair [10]	binding mode from viscosity [10]	further results
COc1cccc2c1C(=O)c1c(O)c3c(c(O)c1C2=O)C[C@@](O)(C(=O)CO)C[C@@H]3O[C@H]1C[C@H](N)[C@H](O)[C@H](C)O1 [DOX, doxorubicin]	17	0.9 ± 0.47 µM	inactive	14.9 ± 0.89 µM	binds preferentially to CGA or CGT	3.7 ± 1.3 µM	299 µM				DOX resistance index relative to that of WP631 [1]: 34 fold; RI (resistance index) KB-V-1 / KB-3-1 ([3]; human, kb-v-1 / kb-3-1 cells): 80.8; adverse systemic effects [7]: acute myelosuppression, cumulative cardiotoxicity, and gastrointestinal toxicity
COc1cccc2c1C(=O)c1c(O)c3c(c(O)c1C2=O)C[C@@](O)(C(C)=O)C[C@@H]3O[C@H]1C[C@H](NCc2ccc(CN[C@H]3C[C@H](O[C@H]4C[C@](O)(C(C)=O)Cc5c(O)c6c(c(O)c54)C(=O)c4c(OC)cccc4C6=O)O[C@@H](C)[C@H]3O)cc2)[C@H](O)[C@H](C)O1 [WP631, α,α'-Bis-[3'-N-(daunorubicin)]-p-xylene hydrochloride]	0.5	4.83 ± 2.5 µM		2.5 ± 3.4 µM				less potent than DOX	1.58±0.08		cytotoxicity in MCF-7/VP-16 cells compared with DOX, in words [1]: dramatic increase in cytotoxicity; binding entropy ΔS [9]: -51 cal mol^-1 K^-1; binding free energy ΔG^0 [9]: -15.3 kcal/mol; entropic contribution TΔS [9]: -14.9 kcal/mol; enthalpy of melting of DNA-WP631 complex ΔH2 ([9]; DSC, BPE buffer, saturating amounts of WP631): 11.4 ± 1.0 kcal/mol; binding enthalpy ΔHb ([9]; hydrochloride): -30.2 ± 2.6 kcal/mol and -30.2 kcal/mol; binding mode from viscosity ([10]; hydrochloride): binds to DNA by bisintercalation; also recorded: nearly double that observed for daunorubicin; Tm of herring sperm DNA in presence of drug ([11]; 10 μM WP631, BPE buffer (16 mM total Na+), DNA alone 67.2° C.): 93.5 °C; Kd ([11]; at 20° C., ΔHb assumed constant with temperature, read-out: binding constant at 20° C. (van't Hoff) (converted)): 0.0037 nM; Kd ([11]; at 93.5° C., assuming n=6 bp, read-out: binding constant K at Tm (converted)): 114 nM; expected binding constant (square of monomer constant) ([11]; expected for bisintercalator, not measured): 10^14 M^-1; DNA affinity compared with polyamides, in words ([11]; vs pyrrole-imidazole polyamides (Trauger, 1996)): surpasses that of the polyamides
COc1cccc2c1C(=O)c1c(O)c3c(c(O)c1C2=O)C[C@@](O)(C(C)=O)C[C@@H]3O[C@H]1C[C@H](O)[C@H](NCc2ccc(CN[C@@H]3[C@H](C)O[C@@H](O[C@H]4C[C@](O)(C(C)=O)Cc5c(O)c6c(c(O)c54)C(=O)c4c(OC)cccc4C6=O)C[C@@H]3O)cc2)[C@H](C)O1 [WP652, α,α'-Bis-4'-N-(4'-amino-3'-deamino-4'-deoxy-3'-hydroxydaunorubicin)-p-xylene hydrochloride]		3.9 ± 3.3 µM	unusually active against the MDR cells			4.8 ± 0.5 µM	7.1 ± 1.2 µM	less potent than DOX			
CN(C)CCN1C(=O)c2cccc3cc(N)cc(c23)C1=O [amonafide]											inhibition of topoisomerase II [12]: inhibit topoisomerase II
COc1cccc2c1C(=O)c1c(O)c3c(c(O)c1C2=O)C[C@@](O)(C(C)=O)C[C@@H]3O[C@H]1C[C@H](N)[C@H](O)[C@H](C)O1 [daunorubicin]					triplet sequences 5'-A/TCG and 5'-A/TGC are preferred binding sites				0.89±0.04	viscosity changes in excellent agreement with the theory	Kd ([13]; BPE buffer, at 20° C., read-out: binding constant of daunorubicin (converted)): 0.1 µM and 0.0625 µM; binding enthalpy ΔH ([13]; comparable ionic conditions): -10.8 kcal/mol; binding entropy ΔS ([13]; comparable ionic conditions): -3 cal mol^-1 K^-1; binding free energy ΔG^0 ([13]; comparable ionic conditions): -9.9 kcal/mol
CC[n+]1c(-c2ccccc2)c2cc(N)ccc2c2ccc(N)cc21 [ethidium bromide, Ethidium bromide]									0.84±0.02	viscosity changes in excellent agreement with the theory	
